Measurements taken from patent publication US20260022142A1, “MACROCYCLIC IMMUNOMODULATORS” (Bristol-Myers Squibb Company, priority 2022, published 2026).
pIC50: −log10 of the molar value. Bridge positions count the residues as written; N and C are the ends. Square brackets hold non-standard residues; d marks the D form. Peptide text beside a SMILES is read from it. * marks the point of attachment. ξ: configuration not given here. Phe(4-COOH) = N[C@@H](Cc1ccc(C(=O)O)cc1)C(=O)O; Bip = N[C@@H](Cc1ccc(-c2ccccc2)cc1)C(=O)O; Tyr(3-F) = N[C@@H](Cc1ccc(O)c(F)c1)C(=O)O; Phe(3-Me) = Cc1cccc(C[C@H](N)C(=O)O)c1; NH(CH2)12COOH = O=C(O)CCCCCCCCCCCCN*; 4Pal = N[C@@H](Cc1ccncc1)C(=O)O; Cha = N[C@@H](CC1CCCCC1)C(=O)O; Thr(3ξ) = CC(O)[C@H](N)C(=O)O; 12Ado = NCCCCCCCCCCCC(=O)O; hSer = N[C@@H](CCO)C(=O)O; Carboxymethyl = O=C(O)C*; Nle = CCCC[C@H](N)C(=O)O; Orn = NCCC[C@H](N)C(=O)O; Aun = NCCCCCCCCCCC(=O)O; Dab = NCC[C@H](N)C(=O)O; Dap = NC[C@H](N)C(=O)O; AEEA = NCCOCCOCC(=O)O

Biological target: T1, PD-1/PD-L1 interaction (PE-labeled human PD-L1-Ig binding to Jurkat cell line over-expressing human PD-1) (Homo sapiens, UniProt Q15116)
T1 construct: expressed in transfected cells; host or cells: Jurkat
T1 sequence (Q15116 25-288): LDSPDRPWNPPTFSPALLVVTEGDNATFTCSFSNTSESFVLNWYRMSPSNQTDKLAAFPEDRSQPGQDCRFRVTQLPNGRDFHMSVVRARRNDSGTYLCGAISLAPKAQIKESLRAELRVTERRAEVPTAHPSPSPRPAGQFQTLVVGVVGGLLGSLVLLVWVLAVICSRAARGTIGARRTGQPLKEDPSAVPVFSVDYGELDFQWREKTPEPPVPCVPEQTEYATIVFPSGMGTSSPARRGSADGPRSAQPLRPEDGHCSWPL
Assay: Jurkat-PD-1 Cell Binding High-Content Screening Assay (CBA)
Assay type: cell-based
Settings: Jurkat cell line over-expressing human PD-1; PE-labeled PD-L1-Ig 20 nM final; read-out: Jurkat hPD1-PDL1 IC50
How it was run: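 Jurkat cells over-expressing human PD-1 (8×10^3 per well, DMEM/10% FCS) preincubated with compound 2 h at 37° C, then PE-labeled human PD-L1-Ig (20 nM final) added for 1 h. Cells fixed with paraformaldehyde, Hoechst-stained, and bound fluorescence quantified by high-content imaging.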

| pIC50 | SMILES |
| --- | --- |
| 7.21 | CC(=O)NCCCC[C@@H]1NC(=O)[C@H](Cc2ccc(-c3ccccc3)cc2)NC(=O)[C@H](Cc2ccc(O)cc2)NC(=O)[C@H](Cc2cccc(C)c2)NC(=O)[C@H](CC(=O)O)NC(=O)[C@H](Cc2ccc(OCC(=O)O)cc2)NC(=O)[C@H](CCN)NC(=O)CSC[C@@H](C(=O)N[C@@H](CCN)C(=O)N[C@@H](CO)C(=O)NCCCCCCCCCCCC(=O)O)NC(=O)[C@H](CCCN)NC(=O)[C@H](C(C)O)NC(=O)[C@H](CC2CCCCC2)NC(=O)[C@H](CCN)NC(=O)[C@@H](CC(C)C)NC(=O)[C@H](CCCN)NC1=O (stereo partly drawn) [Compound 3623] ({CH2CO}-[Dab]Y(Carboxymethyl)D[Phe(3-Me)]Y[Bip]K(Ac)[Orn][dL][Dab][Cha][Thr(3ξ)][Orn]C[Dab]S[12Ado]-OH; thioether N-14) |
| 7.81 | CCCC[C@@H]1NC(=O)CSC[C@@H](C(=O)N[C@@H](CCN)C(=O)NCCOCCOCC(=O)NCCOCCOCC(=O)NCCCCCCCCCCCCC(=O)O)NC(=O)[C@H](CCC(=O)O)NC(=O)[C@H](C(C)C)NC(=O)[C@H](CC2CCCCC2)NC(=O)[C@H](CCN)NC(=O)[C@@H](CC(C)C)NC(=O)[C@H](CCCN)NC(=O)[C@H](Cc2ccc(C(=O)O)cc2)NC(=O)[C@H](Cc2ccc(-c3ccccc3)cc2)NC(=O)[C@H](Cc2ccc(C(=O)O)cc2)NC(=O)[C@H](Cc2cccc(C)c2)NC(=O)[C@H](CC(=O)O)NC(=O)[C@H](Cc2ccc(OCC(=O)O)cc2)NC1=O [Compound 3809] ({CH2CO}-[Nle]Y(Carboxymethyl)D[Phe(3-Me)][Phe(4-COOH)][Bip][Phe(4-COOH)][Orn][dL][Dab][Cha]VEC[Dab][AEEA][AEEA]-{NH(CH2)12COOH}; thioether N-14) |

The remaining lines, values behind:

| SMILES | pIC50 |
| --- | --- |
| CC(C)C[C@H]1NC(=O)[C@H](CCCN)NC(=O)[C@H](Cc2ccc(OCC(=O)O)cc2)NC(=O)[C@H](Cc2ccc(-c3ccccc3)cc2)NC(=O)[C@H](Cc2ccc(O)cc2)NC(=O)[C@H](Cc2ccc(O)c(F)c2)NC(=O)[C@H](CC(=O)O)NC(=O)[C@H](Cc2ccc(OCC(=O)O)cc2)NC(=O)[C@H](CN)NC(=O)CSC[C@@H](C(=O)N[C@@H](CCN)C(=O)NCCCCCCCCCCC(=O)O)NC(=O)[C@H]([C@@H](C)O)NC(=O)[C@H](C(C)C)NC(=O)[C@H](CC2CCCCC2)NC(=O)[C@H](CCN)NC1=O [Compound 2107] ({CH2CO}-[Dap]Y(Carboxymethyl)D[Tyr(3-F)]Y[Bip]Y(Carboxymethyl)[Orn][dL][Dab][Cha]VTC[Dab][Aun]-OH; thioether N-14) | 6.93 |
| CC(C)C[C@H]1NC(=O)[C@H](CCCN)NC(=O)[C@H](Cc2ccc(O)cc2)NC(=O)[C@H](Cc2ccc(-c3ccccc3)cc2)NC(=O)[C@H](C(C)C)NC(=O)[C@H](Cc2c[nH]c3ccccc23)NC(=O)[C@H](CC(=O)O)NC(=O)[C@H](Cc2ccc(OCC(=O)O)cc2)NC(=O)[C@H](CCCNC(=N)N)NC(=O)CSC[C@@H](C(=O)N[C@@H](CCN)C(=O)NCCCCCCCCCCC(=O)O)NC(=O)[C@H](CCO)NC(=O)[C@H](C(C)C)NC(=O)[C@H](CC2CCCCC2)NC(=O)[C@H](CCN)NC1=O [Compound 3412] ({CH2CO}-RY(Carboxymethyl)DWV[Bip]Y[Orn][dL][Dab][Cha]V[hSer]C[Dab][Aun]-OH; thioether N-14) | 7.79 |
| Cc1cccc(C[C@@H]2NC(=O)[C@H](CC(=O)O)NC(=O)[C@H](Cc3ccc(O)cc3)NC(=O)[C@H](Cc3ccncc3)NC(=O)CSC[C@@H](C(=O)N[C@@H](CCN)C(=O)NCCCCCCCCCCC(=O)O)NC(=O)[C@H]([C@@H](C)O)NC(=O)[C@H](C(C)C)NC(=O)[C@H](CC3CCCCC3)NC(=O)[C@H](CCN)NC(=O)[C@@H](CC(C)C)NC(=O)[C@H](CCCN)NC(=O)[C@H](Cc3ccc(O)cc3)NC(=O)[C@H](Cc3ccc(-c4ccccc4)cc3)NC(=O)[C@H](C(C)C)NC2=O)c1 [Compound 2745] ({CH2CO}-[4Pal]YD[Phe(3-Me)]V[Bip]Y[Orn][dL][Dab][Cha]VTC[Dab][Aun]-OH; thioether N-14) | 6.58 |
